Values after ≈ are worked out from the molar mass of the structure shown. “Also recorded” adds a separate entry of the source.
Columns and labels:
A. baumannii ATCC 19606 [1] = assay: MIC, microbroth dilution (EUCAST); format: cell-based, Acinetobacter baumannii; settings: Acinetobacter baumannii, ATCC19606, 18 h
Experimental: (§1) Reference bacterial strains were obtained from the American Type Culture Collection (ATCC). Vancomycin resistant Enterococcus faecium (VRE 734, wastewater isolate from the Venter Laboratory Collection) was isolated on Bile Esculin agar (Oxoid, Australia) containing 6 μg/mL vancomycin and identified using MALDI-TOF mass spectrometry (Bruker, Preston, Victoria, Australia, Australian Center for Antimicrobial Resistance Ecology). The Pseudomonas aeruginosa WT PAO1 and Escherichia coli with deletions of both acrA and acrB genes encoding drug efflux pumps were obtained from the Venter laboratory stock ([Welch et al., 2010]). The protocol for microbial growth was adopted from the European Committee on Antimicrobial Susceptibility Testing (EUCAST) ([European Committee for Antimicrobial Susceptibility Testing, 2016]).
(§2) Non-fastidious bacteria and clinical isolates were maintained in Mueller Hinton (MH) broth (Acumedia, United Kingdom) supplemented with 15% (v/v) glycerol (Chem-Supply, Australia), cultured on Mueller Hinton (MH) agar (Acumedia, United Kingdom) plated and incubated at 37°C. Fastidious bacteria were maintained in Brain Heart Infusion (BHI) broth (Acumedia, United Kingdom) supplemented with 15% (v/v) glycerol at −80°C. The fastidious bacteria were cultured on MH agar plates supplemented with 5% (v/v) lysed horse blood and 3% (v/v) fetal bovine serum and incubated at 30°C in the presence of 5% CO2. Drug susceptibility assays were carried out with the non-fastidious cultures grown in cation-adjusted Mueller Hinton (CaMH) broth (Becton Dickinson, France). Streptococcus pyogenes was grown in CaMH broth supplemented with 5% (v/v) lysed horse blood and 3% (v/v) fetal bovine serum whereas Enterococcus faecium was grown in BHI broth.
(§3) The minimum inhibitory concentrations (MICs) for all six compounds were determined using the microbroth dilution protocol as per EUCAST with an inoculum of approximately […] in an exponential growth phase ([European Committee for Antimicrobial Susceptibility Testing, 2016]). Bacterial suspension, 100 μL/well, was added to 100 μL/well of drug dilutions, then incubated for 18 h at 37°C. Fastidious bacterial suspensions were instead incubated at 30°C in the presence of 5% CO2. Bacterial growth was assessed by measuring the change in A600 nm between time 0 and 18 h (Cytation5® Cell Imaging Multi-Mode Reader, Bio-Tek®). Levofloxacin was used as the positive control. Assays were completed in duplicate in at least three independent experiments.

A. baumannii XDR UW 5075 [2] = assay: MIC, microbroth dilution (EUCAST); format: cell-based, Acinetobacter baumannii; settings: Acinetobacter baumannii, XDRUW5075, 18 h
Experimental: as §1, §2, §3

A. baumannii ATCC 19606 [3] = assay: Checkerboard titration MIC with efflux pump inhibitor PAβN; format: cell-based; settings: Acinetobacter baumannii, ATCC19606, A. baumannii ATCC 19606
Experimental: (§4) To determine if expression of efflux pumps would play a role in the efflux of the cinnamaldehyde derivatives leading to poor antimicrobial activity, interactions between PAβN and the LXC compounds were assessed by checkerboard titration assay. The checkerboard titration assay was performed as previously described ([Chai et al., 2020]). Briefly, PAβN was added in the first row and serially diluted in CaMH broth along the ordinate of the microwell plate while the LXC compounds were serially diluted along the abscissa. Bacterial suspension for A. baumannii ATCC 19606 or AB UW 5075 100 μL/well were added as described for the MIC assay. Bacterial growth was assessed at A600 nm between time 0 and 18 h (Cytation5® Cell Imaging Multi-Mode Reader, Bio-Tek®).

A. baumannii XDR UW 5075 [4] = assay: as above; format: cell-based, Acinetobacter baumannii; settings: for MIC in combination with PAβN: PAβN concentration not given in the sentence
Experimental: as §4

[5] = test system: Streptococcus pyogenes ATCC 10389; assay: Antibacterial activity (MIC), microbroth dilution; format: cell-based; settings: Streptococcus pyogenes, ATCC10389, read-out: Antibacterial activity (MIC)
Experimental: as §1, §2, §3

mammalian tubulin = target: T1, mammalian tubulin (Sus scrofa, UniProt P02550+P02554); assay: Mammalian tubulin polymerization assay kit; format: biochemical, porcine; settings: compounds at 1 × MIC, 1 mM GTP, 37°C
T1 construct: purchased Cytoskeleton Inc. BK011P
T1 sequence (P02550 whole entry): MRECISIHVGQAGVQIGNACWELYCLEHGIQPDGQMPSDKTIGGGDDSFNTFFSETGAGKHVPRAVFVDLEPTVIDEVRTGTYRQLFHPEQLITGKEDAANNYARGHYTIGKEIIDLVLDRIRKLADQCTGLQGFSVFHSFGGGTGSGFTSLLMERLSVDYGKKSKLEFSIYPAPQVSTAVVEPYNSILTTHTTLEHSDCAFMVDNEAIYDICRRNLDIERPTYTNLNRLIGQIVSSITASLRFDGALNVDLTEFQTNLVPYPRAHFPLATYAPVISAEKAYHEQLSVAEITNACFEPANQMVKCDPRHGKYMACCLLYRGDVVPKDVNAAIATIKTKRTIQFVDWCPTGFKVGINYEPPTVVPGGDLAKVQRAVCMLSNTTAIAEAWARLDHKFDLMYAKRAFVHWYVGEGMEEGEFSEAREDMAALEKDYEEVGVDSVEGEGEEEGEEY
T1 sequence (P02554 whole entry): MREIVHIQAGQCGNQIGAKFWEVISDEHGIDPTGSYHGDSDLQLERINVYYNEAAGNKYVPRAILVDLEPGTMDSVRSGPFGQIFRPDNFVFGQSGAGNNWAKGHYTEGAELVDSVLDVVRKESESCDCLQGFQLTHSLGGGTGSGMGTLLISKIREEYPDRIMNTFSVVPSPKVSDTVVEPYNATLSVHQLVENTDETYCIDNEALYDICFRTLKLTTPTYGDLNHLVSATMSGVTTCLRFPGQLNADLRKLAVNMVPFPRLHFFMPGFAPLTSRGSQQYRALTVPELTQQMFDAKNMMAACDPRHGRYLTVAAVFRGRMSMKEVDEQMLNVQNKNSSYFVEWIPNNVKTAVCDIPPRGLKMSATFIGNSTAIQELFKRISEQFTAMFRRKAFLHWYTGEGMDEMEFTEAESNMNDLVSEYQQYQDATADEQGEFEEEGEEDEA
Experimental: The effects of the cinnamaldehyde analogs were analyzed for off-target effects on mammalian tubulin using the protocol as previously described ([Chai et al., 2020]), using a Tubulin Polymerization Assay Kit (Cytoskeleton Inc., BK011P, Denver, CO, United States), following the protocol described by the manufacturer.
Controls included 20 μM paclitaxel (promoter of polymerization), 20 μM vinblastine (inhibitor of polymerization) and 2.5% (v/v) DMSO (solvent control). The reaction was initiated by the addition of 1 mM GTP at 37°C. The fluorescence was read for 2,000 s using PerkinElmer Enspire® plate reader.
FIGURE 7 The effect of the LXC compounds on the polymerization of mammalian tubulin. (A–F) The polymerizing activity of the LXC compounds on porcine tubulin was assessed using a commercial Tubulin Polymerization Assay Kit. The LXC compounds at 1 × MIC were pre-incubated with tubulin on ice before the reaction was initiated by the addition of 1 mM GTP. The fluorescence was measured as a function of time at A360 and A420 nm excitation and emission wavelengths, respectively, at the constant temperature of 37°C. DMSO 2.5% (v/v) (brown curves) was used as vehicle control while paclitaxel (polymerization stabilizer; blue curves) and vinblastine (polymerization inhibitor; green curves) at 20 μM each were also included as controls.

[6] = test system: HepG2 (ATCC HB-8065) cells; assay: RealTime-Glo MT cell viability assay; format: cell-based; settings: 24 h
Experimental: The effects of the cinnamaldehyde analogs were analyzed for off-target effects on mammalian cells using the protocol as previously described ([Chai et al., 2020]) with the following modifications. In vitro cytotoxicity was assessed in HepG2 (ATCC HB-8065) cells using the RealTime-Glo™ MT Cell Viability Assay Kit (Promega) as described previously ([Wang et al., 2017]). The LXC compounds were tested at 1 × and 2 × MIC using a final DMSO concentration of 2% (v/v) in the assay. […] The luminescence signal was read at 5-min intervals over 24 h in a Cytation5® Cell Imaging Multi-Mode Reader (Bio-Tek®), at 37°C in the presence of 5% CO2.
FIGURE 8 The LXC compounds are generally non-toxic at a concentration of 1 × MIC. (A–F) Real-time liver cell viability measurements for HepG2 after treatment with 1 × (pink line) and 2 × (brown line) MIC values. […] Cell viability was measured every 5 min for 24 h at 37°C and 5% CO2 on a Cytation5® Cell Imaging Multi-Mode Reader using the RealTime-Glo™ MT Cell Viability Assay reagent. The results are presented in mean ± SEM (hourly SEM data was presented).

[7] = A. baumannii XDR UW 5075, +PAβN 50 μg/mL
[8] = Acinetobacter baumannii, XDRUW5075
[9] = Acinetobacter baumannii, XDRUW5075, A. baumannii XDR UW 5075, +PAβN 100 μg/mL, read-out: MIC
[10] = Acinetobacter baumannii, XDRUW5075, A. baumannii XDR UW 5075, +PAβN 200 μg/mL, read-out: MIC

Row | SMILES | MIC (A. baumannii ATCC 19606 [1]) [µg/mL] | MIC (A. baumannii XDR UW 5075 [2]) [µg/mL] | MIC (A. baumannii ATCC 19606 [3]; +PAβN 0 μg/mL) [µg/mL] | MIC (A. baumannii ATCC 19606 [3]; +PAβN 50 μg/mL) [µg/mL] | MIC (A. baumannii ATCC 19606 [3]; +PAβN 100 μg/mL) [µg/mL] | MIC (A. baumannii ATCC 19606 [3]; +PAβN 200 μg/mL) [µg/mL] | MIC (A. baumannii XDR UW 5075 [4]; [7]) [µg/mL] | MIC (A. baumannii XDR UW 5075 [4]; [8]) [µg/mL] | MIC (A. baumannii XDR UW 5075 [4]; [9]) [µg/mL] | MIC (A. baumannii XDR UW 5075 [4]; [10]) [µg/mL] | MIC [5] [µg/mL] | Effect on tubulin polymerization (mammalian tubulin) | Cytotoxicity, HepG2 cell viability ([6]; 2 × MIC) | MIC in combination with PAβN (A. baumannii XDR UW 5075 [4]; A. baumannii XDR UW 5075) [µg/mL] | Cytotoxicity, HepG2 cell viability ([6]; 1 × MIC)
1 | Cc1nc2ccccc2n1C(=O)/C=C/c1ccc(Br)cc1 [Compound 4] | 32 (≈ 93.8 µM) | > 128 | 32 | 32 | 8 | 8 | >128 | > 128 | 128 | 64 | > 256 | undesirable inhibitory activity against tubulin | devoid of undesirable toxicity | – | –
2 | Cc1nc2ccccc2n1C(=O)/C=C/c1ccccc1 [Compound 1] | 128 (≈ 488 µM) | > 128 | 128 | 128 | 64 | 32 | >128 | > 128 | 128 | 64 | > 256 | undesirable inhibitory activity | cytotoxicity was also observed | – | –
3 | COc1ccc(/C=C/C(=O)n2c(C)nc3ccccc32)cc1OC [Compound 5] | 256 (≈ 794 µM) | > 128 | 256 | 128 | 8 | 8 | >128 | > 128 | 64 | 32 | > 256 | devoid of tubulin polymerization activity | – | 32 | displayed cytotoxicity
4 | Cc1nc2ccccc2n1C(=O)/C=C/c1ccc(F)cc1 [Compound 2] | 128 (≈ 457 µM) | > 128 | 128 | 128 | 32 | 16 | >128 | > 128 | 64 | 64 | > 256 | devoid of tubulin polymerization activity | cytotoxicity was also observed | – | –
5 | Cc1nc2ccccc2n1C(=O)/C=C/c1ccc(Cl)cc1 [Compound 3] | 128 (≈ 431 µM) | > 128 | 128 | 128 | 8 | 8 | >128 | > 128 | 128 | 64 | > 256 | undesirable inhibitory activity | cytotoxicity was also observed | – | –
6 | Cc1nc2ccccc2n1C(=O)/C=C/c1ccc(Cl)cc1Cl [Compound 6] | 64 (≈ 193 µM) | > 128 | 64 | 32 | 16 | 8 | >128 | > 128 | 32 | 32 | > 256 | devoid of tubulin polymerization activity; also recorded: lack of activity against the tubulin counter-target | devoid of hemolytic activity and cytotoxicity against mammalian cells in vitro; also recorded: devoid of undesirable toxicity | 32 | –
